Key:
Format in all cases: cell-based
[1] = molecular target: T1, EGFR L858R (H3255 cells) (Homo sapiens, UniProt P00533, L858R); experiment: Inhibition of EGFR autophosphorylation (p-EGFR Y1068, western blot) in H3255 cells; settings: 3 h incubation, EGF stimulated
T1 construct: host or cells: H3255
Protocol: (§1) Affinity of the cyanoquinolines for EGFR was established by measuring their inhibition of EGFR autophosphorylation via western blot. Cells were seeded in 6 well plates and following 24 h of growth, were subject to overnight serum starvation. The cells were then treated with increasing concentrations of cyanoquinolines prepared in serum free growth media from a DMSO stock (final DMSO concentration < 1%) for 3 h at 37°C, and stimulated for receptor autophosphorylation by addition of 100 ng/mL of EGF during the last 15 minutes of drug incubation. After 3 h the cells were placed on ice, media removed and then the cells were washed two times with ice cold phosphate buffered saline (PBS). Lysates were analysed by western blot to measure changes to p-EGFR Y1068.
(§2) Cells were collected into a microcentrifuge tube and sonicated for 30 seconds on ice. Cellular protein levels were assessed using a bicinchoninic acid (BCA) protein assay kit according to the manufacturer’s instructions (Thermo scientific). […] Samples were transferred to polyvinylidene difluoride (PVDF) membrane using Trans-Blot Turbo system BIO-RAD (Hercules, California, USA). […] The membranes were then incubated overnight with primary antibody prepared in 1% milk or 1% BSA in TBST. […] Membranes were washed a further three times for 10 minutes with TBST. […]

[2] = test system: active mutant EGFR; experiment: Inhibition of EGFR autophosphorylation in active mutant EGFR expressing cell lines (H1650, PC9, H3255); settings: H1650 (del 746–750), PC9 (del 746–750) and H3255 (L858R) cells; read-out: IC50 p-EGFR Y1068 in active mutant EGFR expressing cell lines
Protocol: as §1
(§3) Cell lysates were prepared by addition of radioimmunoprecipitation assay (RIPA) buffer (50mM Tris-HCl pH 7.2, 150mM NaCl, 1% NP40, 1% sodium deoxycholate, 0.1% sodium dodecyl sulfate) supplemented with 1 x protease and phosphatase inhibitor cocktail (1mM 4-(2-Aminoethyl)benzenesulfonylfluoride hydrochloride, 800 nM aprotinin, 50 μM bestatin, 15 μM E-64, 5μM EDTA, 20 μM leupeptin, 10 μM pepstatin A; Thermo scientific, Waltham, Massachusetts, USA). […] Cellular protein levels were assessed using a bicinchoninic acid (BCA) protein assay kit according to the manufacturer’s instructions (Thermo scientific). […]

[3] = molecular target: T2, wildtype EGFR (A549 cells) (Homo sapiens, UniProt P00533); experiment: Inhibition of EGFR autophosphorylation (p-EGFR Y1068, western blot) in A549 cells; settings: 3 h incubation, EGF stimulated
T2 construct: host or cells: A549
Protocol: as §1, §3

[4] = molecular target: T3, wildtype EGFR (H358 cells) (Homo sapiens, UniProt P00533); experiment: Inhibition of EGFR autophosphorylation (p-EGFR Y1068, western blot) in H358 cells; settings: 3 h incubation, EGF stimulated
T3 construct: host or cells: H358
Protocol: as §1, §3

[5] = molecular target: T4, EGFR Del E746-A750 (PC9 cells) (Homo sapiens, UniProt P00533, DEL746-750); experiment: Inhibition of EGFR autophosphorylation (p-EGFR Y1068, western blot) in PC9 cells; settings: 3 h incubation, densitometry of western blots
T4 construct: endogenous in cells; host or cells: PC9 (Dr Olivier Pardo, Imperial College London)
Protocol: as §1, §2

T1 sequence (P00533 25-1210 L858R): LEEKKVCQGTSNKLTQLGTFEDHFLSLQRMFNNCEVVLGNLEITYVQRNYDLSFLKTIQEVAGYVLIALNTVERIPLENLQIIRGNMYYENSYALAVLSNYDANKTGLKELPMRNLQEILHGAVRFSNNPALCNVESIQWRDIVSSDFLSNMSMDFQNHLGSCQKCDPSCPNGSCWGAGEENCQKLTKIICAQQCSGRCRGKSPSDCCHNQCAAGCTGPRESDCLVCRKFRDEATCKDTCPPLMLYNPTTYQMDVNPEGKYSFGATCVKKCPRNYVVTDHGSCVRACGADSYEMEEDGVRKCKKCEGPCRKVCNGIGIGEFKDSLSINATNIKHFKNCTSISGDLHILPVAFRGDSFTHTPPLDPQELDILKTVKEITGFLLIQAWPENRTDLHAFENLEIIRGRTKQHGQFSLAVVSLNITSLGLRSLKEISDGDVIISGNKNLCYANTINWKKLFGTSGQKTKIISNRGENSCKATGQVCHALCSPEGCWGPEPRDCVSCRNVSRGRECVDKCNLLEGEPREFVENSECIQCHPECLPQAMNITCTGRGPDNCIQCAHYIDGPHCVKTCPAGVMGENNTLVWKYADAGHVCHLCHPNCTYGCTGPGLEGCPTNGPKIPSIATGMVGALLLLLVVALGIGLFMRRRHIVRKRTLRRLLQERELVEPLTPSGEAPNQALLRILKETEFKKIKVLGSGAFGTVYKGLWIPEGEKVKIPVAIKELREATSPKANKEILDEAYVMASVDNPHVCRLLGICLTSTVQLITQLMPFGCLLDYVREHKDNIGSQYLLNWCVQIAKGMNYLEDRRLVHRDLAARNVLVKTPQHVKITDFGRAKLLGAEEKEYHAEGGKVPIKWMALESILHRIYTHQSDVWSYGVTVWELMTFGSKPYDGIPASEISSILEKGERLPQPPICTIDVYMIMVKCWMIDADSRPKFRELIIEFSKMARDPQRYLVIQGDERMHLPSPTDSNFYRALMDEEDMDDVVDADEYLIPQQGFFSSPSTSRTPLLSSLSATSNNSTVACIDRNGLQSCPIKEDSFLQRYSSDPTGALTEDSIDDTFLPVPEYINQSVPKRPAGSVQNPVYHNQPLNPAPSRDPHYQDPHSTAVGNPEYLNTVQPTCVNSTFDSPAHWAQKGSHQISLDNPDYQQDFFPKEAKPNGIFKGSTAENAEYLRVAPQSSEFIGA
T4 sequence (P00533 with tags, fused parts or gaps DEL746-750): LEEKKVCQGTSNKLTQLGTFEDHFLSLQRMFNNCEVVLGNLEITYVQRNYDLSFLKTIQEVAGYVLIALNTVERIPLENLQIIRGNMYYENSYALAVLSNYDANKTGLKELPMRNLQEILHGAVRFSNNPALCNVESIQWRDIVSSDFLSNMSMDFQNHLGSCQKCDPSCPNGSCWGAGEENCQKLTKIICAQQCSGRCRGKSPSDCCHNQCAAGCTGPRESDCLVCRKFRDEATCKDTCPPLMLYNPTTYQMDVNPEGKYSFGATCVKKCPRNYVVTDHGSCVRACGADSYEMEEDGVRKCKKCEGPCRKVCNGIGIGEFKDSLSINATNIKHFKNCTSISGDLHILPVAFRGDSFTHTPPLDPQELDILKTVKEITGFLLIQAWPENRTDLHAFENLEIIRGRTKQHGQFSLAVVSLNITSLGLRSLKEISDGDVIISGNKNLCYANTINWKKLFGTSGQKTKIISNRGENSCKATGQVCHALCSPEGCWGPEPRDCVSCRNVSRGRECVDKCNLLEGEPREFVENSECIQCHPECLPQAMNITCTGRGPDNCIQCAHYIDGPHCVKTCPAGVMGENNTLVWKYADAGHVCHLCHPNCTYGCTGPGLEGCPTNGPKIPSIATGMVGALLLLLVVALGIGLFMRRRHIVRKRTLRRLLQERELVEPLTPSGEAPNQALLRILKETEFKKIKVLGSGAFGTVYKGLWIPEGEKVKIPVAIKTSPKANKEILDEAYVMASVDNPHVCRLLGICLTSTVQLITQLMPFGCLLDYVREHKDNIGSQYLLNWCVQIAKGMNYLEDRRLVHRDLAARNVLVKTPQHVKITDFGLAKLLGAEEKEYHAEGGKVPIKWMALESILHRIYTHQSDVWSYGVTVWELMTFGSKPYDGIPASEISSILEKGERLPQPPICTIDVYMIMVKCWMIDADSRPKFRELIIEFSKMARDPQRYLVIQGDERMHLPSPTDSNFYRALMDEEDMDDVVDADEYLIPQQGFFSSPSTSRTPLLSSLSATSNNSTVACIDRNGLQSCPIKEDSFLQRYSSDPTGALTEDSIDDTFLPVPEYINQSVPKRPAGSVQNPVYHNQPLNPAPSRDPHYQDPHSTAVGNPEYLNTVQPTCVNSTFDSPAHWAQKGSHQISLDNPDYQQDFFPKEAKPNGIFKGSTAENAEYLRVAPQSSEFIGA
T3 sequence (P00533 25-1210): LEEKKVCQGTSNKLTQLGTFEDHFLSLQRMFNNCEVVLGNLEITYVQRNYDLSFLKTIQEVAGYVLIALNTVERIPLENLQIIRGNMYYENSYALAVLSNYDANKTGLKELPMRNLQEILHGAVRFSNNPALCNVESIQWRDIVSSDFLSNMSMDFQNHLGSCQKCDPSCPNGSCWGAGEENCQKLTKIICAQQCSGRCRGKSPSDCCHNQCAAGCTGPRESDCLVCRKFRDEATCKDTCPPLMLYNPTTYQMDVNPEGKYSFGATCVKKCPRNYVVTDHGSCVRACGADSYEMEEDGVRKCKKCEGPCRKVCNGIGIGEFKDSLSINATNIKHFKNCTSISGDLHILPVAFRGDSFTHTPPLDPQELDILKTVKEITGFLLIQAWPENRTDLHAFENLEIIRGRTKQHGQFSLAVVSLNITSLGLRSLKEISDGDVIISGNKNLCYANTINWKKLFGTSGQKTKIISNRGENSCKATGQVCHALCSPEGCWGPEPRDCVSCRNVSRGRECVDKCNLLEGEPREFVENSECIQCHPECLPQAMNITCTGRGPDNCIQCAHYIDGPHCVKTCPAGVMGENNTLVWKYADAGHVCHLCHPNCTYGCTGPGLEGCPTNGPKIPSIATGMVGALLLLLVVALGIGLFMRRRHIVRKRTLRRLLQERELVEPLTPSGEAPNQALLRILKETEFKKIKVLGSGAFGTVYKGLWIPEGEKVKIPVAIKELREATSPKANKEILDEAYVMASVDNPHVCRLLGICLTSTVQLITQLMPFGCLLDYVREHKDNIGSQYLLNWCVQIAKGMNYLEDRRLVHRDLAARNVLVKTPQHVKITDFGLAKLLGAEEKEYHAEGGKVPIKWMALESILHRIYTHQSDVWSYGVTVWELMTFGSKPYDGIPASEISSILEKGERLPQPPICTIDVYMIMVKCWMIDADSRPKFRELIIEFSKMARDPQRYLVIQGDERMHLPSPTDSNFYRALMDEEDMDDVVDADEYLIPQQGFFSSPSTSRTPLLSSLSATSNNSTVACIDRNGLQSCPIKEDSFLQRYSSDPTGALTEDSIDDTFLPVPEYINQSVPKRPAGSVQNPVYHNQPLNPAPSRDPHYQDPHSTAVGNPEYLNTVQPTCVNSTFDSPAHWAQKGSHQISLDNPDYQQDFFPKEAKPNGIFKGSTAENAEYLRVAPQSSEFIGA
T2 sequence (P00533 25-1210): as above

For CCOc1cc2ncc(C#N)c(Nc3ccc(F)c(Cl)c3)c2cc1NC(=O)/C=C/CNCc1cn(CCF)nn1 [FED6, (2E)-N-{4-[(3-chloro-4-fluorophenyl)amino]-3-cyano-7-ethoxyquinolin-6-yl}-4-({[1-(2-fluoroethyl)-1H-1,2,3-triazol-4-yl]methyl}amino)-but-2-enamide], the IC50 [1] was 0.008 µM, the IC50 [2] was 0.008 to 0.04 µM and the IC50 [3] was 0.7 µM. The IC50 [4] was 0.6 µM and the IC50 [5] was 0.022 µM.
